This is an account of results in patent publication US20100004459A1, “2-PHENYLNICOTINIC ACID DERIVATIVE” (NIPPON ZOKI PHARMACEUTICAL CO., LTD., priority 2006, published 2010).

Data set [1] deals with model rats of fructose-loaded hypertriglyceridemia. The experiment in a line: Model rats of fructose-loaded hypertriglyceridemia: action for lowering of uric acid in serum. Format: in vivo. Conditions: Rattus norvegicus, po; male SD rats, 75% fructose solution for three days; 100 mg/kg orally once daily; serum 2 hours after final administration; read-out: Inhibition Rate (%) Action for lowering of uric acid. As for the experimental part: (§1) The test was conducted according to a method of Kusama, et al. (Folia Pharmacologica Japonica, volume 92, pages 175 to 180, 1988). Thus, male rats of SD strain of 6 to 7 weeks age were made in free access to a 75% (w/v) D(−)-fructose solution for three days. During the period of fructose ingestion, a test substance (100 mg/kg) was suspended in 1% methyl cellulose and orally administered once daily. After 2 hours from the final administration, about 500 μL per rat of blood was collected using a hematocrit capillary from orbital venous plexus under anesthetization with ether and centrifuged (3000 rpm at 4° C. for 20 minutes) whereupon the serum was prepared.
(2) Action for Lowering of Uric Acid in Serum
Uric acid value in the serum was measured by a Uric acid C-Test Wako (manufactured by Wako Pure Chemical Industries, Ltd.) using the above serum and each uric acid lowering rate was determined by the following formula.
Uric Acid Lowering Rate(%)={[(Uric Acid Value of Control Animal)-(Uric Acid Value of Animals Administered with Test Substance)]/[Uric Acid Value of Control Animal]}×100

The test system is the same in data set [2]. Put plainly: Model rats of fructose-loaded hypertriglyceridemia: action for lowering of triglyceride in serum. The note with it: Rattus norvegicus, po; male SD rats, 75% fructose solution for three days; 100 mg/kg orally once daily; serum 2 hours after final administration; read-out: Inhibition Rate (%) Action for lowering of triglyceride. Format: in vivo. As for the experimental part: as §1
(1) Action for Lowering of Triglyceride in Serum
The triglyceride (TG) in the serum was measured by a Triglyceride E-Test Wako (manufactured by Wako Pure Chemical Industries, Ltd.) and each TG lowering rate was determined by the following formula.
TG Lowering Rate(%)={[(TG Value of Control Animal)−(TG Value of Animal Administered with Test Substance)]/[(TG Value of Control Animal)-(TG Value of Untreated Animal)]}×100

A further data set addresses T1, xanthine oxidase (Bos taurus, UniProt P80457).
T1 construct: derived from milk; manufactured by Sigma; purchased Sigma; host or cells: milk (natural source)
The experiment in a line: Test for xanthine oxidase inhibitory activity. Format: biochemical. The note with it: xanthine oxidase derived from milk (Sigma); substrate xanthine; uric acid production at OD 292 nm, 37° C. As for the experimental part: Evaluation of inhibitory activity of the present invention to xanthine oxidase was conducted using xanthine as a substrate by measuring the amount of uric acid produced by xanthine oxidase which is an oxidizing enzyme therefor. Thus, xanthine oxidase (0.01 unit/L, 20 μL/well; derived from milk; manufactured by Sigma), diethylenetriamine pentaacetate (0.01 mol/L, 20 μL/well), phosphate buffer (20 μL/well), distilled water (100 μL/well) and a diluted solution (20 μL/well) of a test substance were mixed in a 96-well quartz microplate. After preincubating for 5 minutes in a microplate spectrophotometer warmed at 37° C., xanthine (1 mmol/L, 20 μL/well) was added. The changes with elapse of time in OD 292 nm based on the production of uric acid was measured using a microplate spectrophotometer warmed at 37° C. whereby the initial reaction velocity was measured. Xanthine oxidase inhibitory activity was calculated by the following formula and concentration of the test substance for 50% suppression (IC50 value) was calculated.
Inhibition Rate(%)={[(Initial Reaction Velocity of the Reaction Control)-(Initial Reaction Velocity upon Addition of Test Substance)]/[Initial Reaction Velocity of the Reaction Control]}×100

T1 sequence (P80457 whole entry): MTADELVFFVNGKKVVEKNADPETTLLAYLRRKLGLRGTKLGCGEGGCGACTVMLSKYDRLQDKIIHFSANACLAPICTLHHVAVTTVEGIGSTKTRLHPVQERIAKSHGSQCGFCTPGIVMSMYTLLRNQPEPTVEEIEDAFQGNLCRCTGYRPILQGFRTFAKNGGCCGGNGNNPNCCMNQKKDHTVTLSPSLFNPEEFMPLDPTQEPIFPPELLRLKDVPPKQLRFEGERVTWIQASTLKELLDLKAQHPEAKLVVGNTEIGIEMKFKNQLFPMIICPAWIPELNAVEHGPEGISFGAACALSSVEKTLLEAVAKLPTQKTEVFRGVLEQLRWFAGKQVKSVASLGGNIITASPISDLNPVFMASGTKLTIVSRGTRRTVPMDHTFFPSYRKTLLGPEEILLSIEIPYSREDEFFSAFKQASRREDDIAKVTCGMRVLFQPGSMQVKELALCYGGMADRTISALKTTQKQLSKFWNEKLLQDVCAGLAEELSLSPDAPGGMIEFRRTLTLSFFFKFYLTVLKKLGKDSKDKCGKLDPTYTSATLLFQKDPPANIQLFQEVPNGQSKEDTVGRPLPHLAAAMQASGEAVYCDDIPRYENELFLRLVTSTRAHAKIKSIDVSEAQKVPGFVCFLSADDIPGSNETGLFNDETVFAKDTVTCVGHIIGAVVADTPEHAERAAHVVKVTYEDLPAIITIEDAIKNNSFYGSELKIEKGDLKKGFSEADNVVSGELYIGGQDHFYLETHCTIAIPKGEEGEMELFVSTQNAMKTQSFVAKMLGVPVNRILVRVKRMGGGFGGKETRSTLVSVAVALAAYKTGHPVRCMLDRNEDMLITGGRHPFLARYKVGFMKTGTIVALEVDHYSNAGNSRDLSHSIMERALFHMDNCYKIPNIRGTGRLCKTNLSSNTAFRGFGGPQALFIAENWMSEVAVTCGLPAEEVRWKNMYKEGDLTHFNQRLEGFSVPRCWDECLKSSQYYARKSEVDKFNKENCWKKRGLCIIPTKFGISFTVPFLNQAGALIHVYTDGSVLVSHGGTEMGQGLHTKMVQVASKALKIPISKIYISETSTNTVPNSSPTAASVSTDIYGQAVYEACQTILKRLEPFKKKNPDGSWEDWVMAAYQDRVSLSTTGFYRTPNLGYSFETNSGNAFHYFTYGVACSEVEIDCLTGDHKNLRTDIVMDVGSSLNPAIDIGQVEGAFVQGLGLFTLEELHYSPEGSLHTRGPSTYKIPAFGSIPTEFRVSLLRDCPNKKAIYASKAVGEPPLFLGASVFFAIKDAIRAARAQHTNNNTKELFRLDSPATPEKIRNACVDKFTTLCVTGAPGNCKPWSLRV

Usually melting point stands for the temperature, or range, at which the solid turns liquid. As a reminder, the IC50 is the concentration needed to halve the response being measured. For the compound `N#Cc1cc(-c2ncccc2C(=O)O)ccc1OCC1CCCCC1` [Example 47, 2-(3-Cyano-4-cyclohexylmethoxyphenyl)nicotinic acid], the melting point fell in the range of 220 to 221 °C. The inhibition in vivo at 100 mg/kg in data set [1] was determined as 52.6%. For the same compound, the inhibition in vivo at 100 mg/kg in data set [2] came to 46.3%. It took 24 nM to reach half-maximal inhibition at xanthine oxidase (IC50).
Compound `N#Cc1cc(-c2ncccc2C(=O)O)ccc1OCCc1ccccc1C(F)(F)F` [Example 56] returned a melting point of 187 to 188 °C. In addition, in data set [1], the inhibition in vivo at 100 mg/kg amounted to 38.7%. In addition, the inhibition in vivo at 100 mg/kg in data set [2] is 72.1%. The compound further had an IC50 on xanthine oxidase of 36 nM.
In turn, `N#Cc1cc(-c2ncccc2C(=O)O)ccc1OCCCc1ccc(C(F)(F)F)cc1` [Example 59, 2-{3-Cyano-4-[3-(4-trifluoromethylphenyl)propoxy]phenyl}nicotinate] yielded a melting point of 183 to 184 °C. Moreover, in data set [1], the inhibition in vivo at 100 mg/kg is 29.3%. Besides, the inhibition in vivo at 100 mg/kg in data set [2] is 53.2%. Besides, the IC50 on xanthine oxidase is 42 nM.
On the same counts, the results for `N#Cc1cc(-c2ncccc2C(=O)O)ccc1OCCCCc1ccccc1` [Example 62, 2-[3-Cyano-4-(4-phenylbutoxy)phenyl]nicotinic acid] are 163 to 164 °C, 43.6%, 71.1% and 27 nM.
The compound `CCC(C)(C)COc1ccc(-c2ncccc2C(=O)O)cc1C#N` [Example 72, 2-[3-Cyano-4-(2,2-dimethylbutoxy)phenyl]nicotinic acid] displayed a melting point of 166 to 167 °C. The inhibition in vivo at 100 mg/kg in data set [1] came to 48.5%. Moreover, in data set [2], the inhibition in vivo at 100 mg/kg was found to be 34.2%. The compound also came in with a half-maximal inhibitory concentration (IC50) at xanthine oxidase of 28 nM.
`N#Cc1cc(-c2ncccc2C(=O)O)ccc1OCC1CCCC1` [Example 75, 2-(3-Cyano-4-cyclopentylmethoxyphenyl)nicotinic acid] yielded a melting point of 227 to 228 °C. In data set [1], the inhibition in vivo at 100 mg/kg amounted to 49.5%. For the same compound, the inhibition in vivo at 100 mg/kg in data set [2] stood at 25.7%. In addition, at xanthine oxidase, the IC50 worked out at 24 nM.
On the same counts, the results for `CC1(COc2ccc(-c3ncccc3C(=O)O)cc2C#N)CCCCC1` [Example 77, 2-[3-Cyano-4-(1-methylcyclohexylmethoxy)phenyl]nicotinic acid] are 100 to 101 °C, 27.8%, 39.6% and 24 nM.
On to `CC(C)(COc1ccc(-c2ncccc2C(=O)O)cc1C#N)c1ccccc1` [Example 78, 2-[3-Cyano-4-(2-methyl-2-phenylpropoxy)phenyl]nicotinic acid], for which the melting point is 221 to 222 °C. The inhibition in vivo at 100 mg/kg in data set [1] was 19.4%. For the same compound, the inhibition in vivo at 100 mg/kg in data set [2] was determined as 21.6%.
In turn, `CC(C)(C)COc1ccc(-c2ncccc2C(=O)O)cc1C#N` [Example 83, 2-[3-Cyano-4-(2,2-dimethylpropoxy)phenyl]nicotinic acid] gave a melting point of 231 to 232 °C. In addition, in data set [1], the inhibition in vivo at 100 mg/kg is 56.6%. Moreover, the inhibition in vivo at 100 mg/kg in data set [2] amounted to 112%. Further, the 50% inhibitory concentration (IC50) on xanthine oxidase worked out at 42 nM.
Take `CC(C)(C)CCOc1ccc(-c2ncccc2C(=O)O)cc1C#N` [Example 84, 2-[3-Cyano-4-(3,3-dimethylbutoxy)phenyl]nicotinic acid]: the melting point is 206 to 207 °C. Also, the inhibition in vivo at 100 mg/kg in data set [1] stood at 69.2%. In addition, the inhibition in vivo at 100 mg/kg in data set [2] was found to be 41.4%. It took 18 nM to reach half-maximal inhibition against xanthine oxidase (IC50).
Take `N#Cc1cc(-c2ncccc2C(=O)O)ccc1OCCc1ccccc1Cl` [Example 100, 2-{4-[2-(2-Chlorophenyl)ethoxy]-3-cyanophenyl}nicotinic acid]: the inhibition in vivo at 100 mg/kg came out at 58.2% in data set [1] and 40.8% in data set [2]. Also, half-maximal inhibition at xanthine oxidase (IC50) was put at 65 nM.
Take `Cc1ccccc1CCOc1ccc(-c2ncccc2C(=O)O)cc1C#N` [Example 102, 2-[3-Cyano-4-(2-methylphenethyloxy)-phenyl]nicotinic acid]: the figures for the inhibition in vivo at 100 mg/kg in data set [1] and in data set [2] were 25.2% and 28.4%, respectively. This compound registered an IC50 at xanthine oxidase of 53 nM.
